Structures are written as SMILES.

The test system of data set [1] is Plasmodium falciparum. The data set is described as follows: Ratio of chloroquine IC50 to compound IC50 for chloroquine-sensitive Plasmodium falciparum D10. It is filed as functional.
In data set [2] the test system is Plasmodium falciparum. In words: Antiplasmodial activity against chloroquine-resistant Plasmodium falciparum W2 infected in human red blood cells after 72 hrs by parasite lactate dehydrogenase assay. It is filed as functional, organism-based. The conditions noted are these: W2, 72 h.
A short description of data set [3]: Resistance index, ratio of IC50 for chloroquine-resistant Plasmodium falciparum W2 to IC50 for chloroquine-sensitive Plasmodium falciparum D10. It is filed as functional.
Data set [4] in a line: Selectivity index, ratio of IC50 for human HMEC1 cells to IC50 for chloroquine-resistant Plasmodium falciparum W2. It is filed as toxicity, cell-based. The conditions noted are these: read-out: Ratio IC50.
Data set [5] deals with Plasmodium falciparum. In words: Ratio of chloroquine IC50 to compound IC50 for chloroquine-resistant Plasmodium falciparum W2. It is filed as functional.
In data set [6] the test system is Plasmodium falciparum. In words: Antiplasmodial activity against chloroquine-sensitive Plasmodium falciparum D10 infected in human red blood cells after 72 hrs by parasite lactate dehydrogenase assay. The data set is classed as functional, organism-based. The conditions noted are these: D10, 72 h.
A short description of data set [7]: Lipophilicity, log P of the compound at pH 7.4. The data set is classed as physicochemical. The conditions noted are these: buffer.
The nature of data set [8]: n-octanol-KCl distribution coefficient, log D of the compound at pH 7.4. It is filed as physicochemical.
Data set [9] is described as follows: Cytotoxicity against human HMEC1 cells after 72 hrs by MTT assay. It is filed as cell-based. The conditions noted are these: HMEC-1, 72 h.

Regarding `Clc1ccc(-c2nc(CNc3ccnc4cc(Cl)ccc34)[nH]c2CN2CCCC2)cc1`, the “Ratio IC50” value in the data set with Plasmodium falciparum [1] came to 2; in data set [3] it was 4.9; in the data set on Plasmodium falciparum [5], 10.62. Moreover, the half-inhibitory concentration (IC50) with Plasmodium falciparum [2] is 27.2 nM; in the data set on Plasmodium falciparum [6], 5.5 nM; in data set [9], 2060 nM. In addition, the selectivity ratio in data set [4] came to 76. Moreover, the logP in data set [7] (read-out: logP) came to 6.96. This compound also yielded a pH-dependent lipophilicity (logD) in data set [8] of 4.63.

In the case of `CCN(CC)Cc1[nH]c(CNc2ccnc3cc(Cl)ccc23)nc1-c1ccccc1`, the “Ratio IC50” value is 0.58 in the data set with Plasmodium falciparum [1], 3.1 in data set [3] and 1.78 with Plasmodium falciparum [5]. Also, the IC50 in the data set on Plasmodium falciparum [2] worked out at 85.8 nM; in the data set with Plasmodium falciparum [6], 28 nM; in data set [9], 9140 nM. In addition, the selectivity ratio in [4] worked out at 107.

Regarding `Clc1ccc2c(Nc3ccc(CN4CCCC4)s3)ccnc2c1`, the “Ratio IC50” value in the data set with Plasmodium falciparum [1] turned out to be 0.01; in [3], 1.6; in the data set on Plasmodium falciparum [5], 0.04. In addition, the IC50 worked out at 4220 nM in the data set on Plasmodium falciparum [2] and 2660 nM in the data set on Plasmodium falciparum [6]. In addition, the logP in data set [7] (read-out: logP) was 3.93. Further, the logD in [8] was determined as 2.98.

With `Clc1ccc2c(NCc3nc(-c4ccccc4)c(CN4CCCC4)s3)ccnc2c1`, the “Ratio IC50” value in the data set on Plasmodium falciparum [1] came out at 0.81; in [3], 3.1; with Plasmodium falciparum [5] it was 4.93. In addition, the results for the IC50 (in the data set with Plasmodium falciparum [2]; in the data set with Plasmodium falciparum [6]; in data set [9]) were 60.1 nM, 19.3 nM and 30400 nM, respectively. Moreover, in data set [4], the selectivity ratio amounted to 506. Further, the lipophilicity (logP) in [7] (read-out: logP) is 6.78. In [8], this compound gave a logD of 6.01.

On to `Clc1ccc2c(NCc3nc4ccccc4[nH]3)ccnc2c1`, for which the “Ratio IC50” value is 0.2 in the data set on Plasmodium falciparum [1], 3.6 in data set [3] and 1.68 with Plasmodium falciparum [5]. Moreover, the half-inhibitory concentration (IC50) in the data set with Plasmodium falciparum [2] is 256 nM; with Plasmodium falciparum [6], 70.6 nM; in [9] it was 2400 nM. For the same compound, the selectivity ratio in [4] was determined as 9. In addition, the log partition coefficient (logP) in [7] (read-out: logP) was 3.78. In [8], this compound gave a log distribution coefficient (logD) of 3.56.

`Clc1ccc2c(NCc3ncc[nH]3)ccnc2c1`: the entries for the “Ratio IC50” value (in the data set with Plasmodium falciparum [1]; in [3]; in the data set on Plasmodium falciparum [5]) were 0.11, 2.5 and 0.39, respectively. Further, the IC50 was 384 nM with Plasmodium falciparum [2] and 152 nM with Plasmodium falciparum [6]. Also, the log partition coefficient (logP) in data set [7] (read-out: logP) turned out to be 2.82. This compound showed a logD in [8] of 2.39.

Take `Clc1ccc2c(NCc3nc(-c4ccc(N5CCCC5)cc4)c[nH]3)ccnc2c1`: the figures for the “Ratio IC50” value (in the data set on Plasmodium falciparum [1]; in data set [3]; in the data set on Plasmodium falciparum [5]) were 0.77, 1.9 and 12.22, respectively. The concentration for half-maximal inhibition (IC50) in the data set with Plasmodium falciparum [2] turned out to be 35.3 nM; with Plasmodium falciparum [6] it was 18.2 nM; in data set [9], 2430 nM. Also, in data set [4], the selectivity ratio came out at 69. The lipophilicity (logP) in data set [7] (read-out: logP) is 8.87. In addition, the logD in data set [8] is 8.53.

With `CCN(CC)Cc1ccc(Nc2ccnc3cc(Cl)ccc23)s1`, the figures for the “Ratio IC50” value (with Plasmodium falciparum [1]; in [3]; with Plasmodium falciparum [5]) were 0.08, 1.4 and 0.06, respectively. Besides, the 50% inhibitory concentration (IC50) turned out to be 2580 nM in the data set on Plasmodium falciparum [2] and 1860 nM with Plasmodium falciparum [6].

Turning to `Cn1c(CNc2ccnc3cc(Cl)ccc23)nc(-c2ccccc2)c1CN1CCCC1`, the “Ratio IC50” value in the data set on Plasmodium falciparum [1] came to 1.18; in data set [3] it was 2.2; in the data set on Plasmodium falciparum [5], 16.27. For the same compound, the IC50 in the data set with Plasmodium falciparum [2] turned out to be 26.5 nM; in the data set on Plasmodium falciparum [6] it was 11.8 nM; in data set [9] it was 28600 nM. Besides, the selectivity ratio in [4] worked out at 1080. Further, in [7], the lipophilicity (logP) came out at 9.18. Moreover, the logD in data set [8] was found to be 7.57.

Take `Clc1ccc2c(NCc3nc(-c4ccccc4)c[nH]3)ccnc2c1`: the “Ratio IC50” value in the data set with Plasmodium falciparum [1] amounted to 0.14; in data set [3] it was 0.7; with Plasmodium falciparum [5] it was 1.78. Also, the IC50 in the data set on Plasmodium falciparum [2] came out at 85.1 nM; in the data set with Plasmodium falciparum [6] it was 116 nM; in data set [9], 13100 nM. The selectivity ratio in data set [4] was 154. Moreover, in data set [7] (read-out: logP), the logP is 4.98. In addition, the logD in data set [8] worked out at 4.62.

Regarding `Clc1ccc2c(NCc3ncc(CN4CCCC4)[nH]3)ccnc2c1`, the “Ratio IC50” value in the data set with Plasmodium falciparum [1] was determined as 0.04; in [3] it was 7.8; in the data set on Plasmodium falciparum [5] it was 0.05. The half-maximal inhibitory concentration (IC50) with Plasmodium falciparum [2] came to 3120 nM; in the data set with Plasmodium falciparum [6], 399 nM. The logP in data set [7] (read-out: logP) stood at 4.78. Further, the logD in data set [8] amounted to 1.42.

On to `CCN(CC)Cc1cnc(CNc2ccnc3cc(Cl)ccc23)[nH]1`, for which the entries for the “Ratio IC50” value (in the data set with Plasmodium falciparum [1]; in data set [3]; with Plasmodium falciparum [5]) were 0.07, 19.9 and 0.04, respectively. For the same compound, the IC50 was 3800 nM in the data set with Plasmodium falciparum [2] and 191 nM in the data set with Plasmodium falciparum [6].

As for `CCN(CC)Cc1[nH]c(CNc2ccnc3cc(Cl)ccc23)nc1-c1ccc(Cl)cc1`, the entries for the “Ratio IC50” value (in the data set with Plasmodium falciparum [1]; in data set [3]; in the data set with Plasmodium falciparum [5]) were 1.25, 3.1 and 10.47, respectively. For the same compound, the IC50 with Plasmodium falciparum [2] amounted to 27.6 nM; in the data set with Plasmodium falciparum [6] it was 8.8 nM; in data set [9], 2440 nM. In addition, the selectivity ratio in data set [4] stood at 89.

For `Clc1ccc2c(NCc3nc(-c4ccccc4)c(CN4CCCC4)[nH]3)ccnc2c1`, the “Ratio IC50” value with Plasmodium falciparum [1] was 0.71; in data set [3], 4; in the data set with Plasmodium falciparum [5] it was 1.67. The IC50 with Plasmodium falciparum [2] amounted to 91.6 nM; with Plasmodium falciparum [6], 22.9 nM; in data set [9], 8660 nM. The selectivity ratio in [4] is 95. Further, the logP in data set [7] (read-out: logP) worked out at 6.35. In addition, the pH-dependent lipophilicity (logD) in data set [8] came to 4.22.

Regarding `Cn1cc(-c2ccccc2)nc1CNc1ccnc2cc(Cl)ccc12`, the “Ratio IC50” value in the data set with Plasmodium falciparum [1] amounted to 0.46; in [3], 2.3; in the data set with Plasmodium falciparum [5], 6.14. Besides, the IC50 came out at 70.3 nM in the data set on Plasmodium falciparum [2], 30 nM in the data set with Plasmodium falciparum [6] and 17500 nM in data set [9]. Further, the selectivity ratio in [4] was 249. Also, the log partition coefficient (logP) in data set [7] (read-out: logP) is 4.99. In data set [8], this compound registered a pH-dependent lipophilicity (logD) of 4.57.

Regarding `Fc1ccc(-c2nc(CNc3ccnc4cc(Cl)ccc34)[nH]c2CN2CCCC2)cc1`, the “Ratio IC50” value in the data set with Plasmodium falciparum [1] came out at 0.57; in data set [3] it was 7.7; in the data set on Plasmodium falciparum [5], 2.11. Further, the results for the IC50 with Plasmodium falciparum [2] and in the data set on Plasmodium falciparum [6] were 197 nM and 25.7 nM, respectively. Besides, in data set [7] (read-out: logP), the logP amounted to 6.78. In data set [8], this compound showed a log distribution coefficient (logD) of 4.77.

In the case of `Fc1ccc(-c2c[nH]c(CNc3ccnc4cc(Cl)ccc34)n2)cc1`, the figures for the “Ratio IC50” value (in the data set with Plasmodium falciparum [1]; in data set [3]; in the data set with Plasmodium falciparum [5]) were 0.28, 1.6 and 5.05, respectively. Further, the IC50 came out at 82.4 nM in the data set with Plasmodium falciparum [2], 52.1 nM in the data set with Plasmodium falciparum [6] and 9920 nM in data set [9]. Besides, in data set [4], the selectivity ratio stood at 120. For the same compound, the log partition coefficient (logP) in [7] (read-out: logP) was found to be 5.31. The compound also had a logD in data set [8] of 4.93.

For `Cc1ccc(-c2nc(CNc3ccnc4cc(Cl)ccc34)[nH]c2CN2CCCC2)cc1`, the “Ratio IC50” value stood at 1.49 in the data set with Plasmodium falciparum [1], 9.4 in [3] and 4.17 in the data set with Plasmodium falciparum [5]. Further, the IC50 is 69.3 nM in the data set with Plasmodium falciparum [2], 7.4 nM in the data set on Plasmodium falciparum [6] and 3660 nM in data set [9]. In [4], the selectivity ratio was determined as 53. In data set [7] (read-out: logP), the logP came out at 6.45. Further, in [8], the logD came to 4.

With `CN(C)c1cccc(-c2c[nH]c(CNc3ccnc4cc(Cl)ccc34)n2)c1`, the “Ratio IC50” value in the data set with Plasmodium falciparum [1] is 0.46; in data set [3], 1.7; in the data set on Plasmodium falciparum [5] it was 7.78. The IC50 came out at 53.5 nM with Plasmodium falciparum [2], 32 nM in the data set with Plasmodium falciparum [6] and 8970 nM in data set [9]. The selectivity ratio in data set [4] was 168. The logP in data set [7] (read-out: logP) came to 5.86. In data set [8], this compound returned a pH-dependent lipophilicity (logD) of 5.48.

One may read the IC50 as the midpoint of a concentration-inhibition curve. A low value points to inhibition by little substance. Usually logP stands for a log measure of how a compound divides between an organic and an aqueous phase. One may read the logD as lipophilicity at a set pH, counting ionised and neutral species.

For the origin of these results see ChEMBL document CHEMBL2146461, “Synthesis and antiplasmodial activity of new heteroaryl derivatives of 7-chloro-4-aminoquinoline” (Bioorg Med Chem, 2012).
